From patent publication US20250295615A1 (BOARD OF REGENTS, THE UNIVERSITY OF TEXAS SYSTEM, priority 2021, published 2025)

Experiments:
[1] = human, in vivo
Source text: Population and Recruitment: We recruited healthy men enrolled in the SABOR study, which is a community-based prostate cancer screening cohort. The San Antonio Biomarkers of Risk (SABOR) study cohort was funded by the National Cancer Institute Early Detection Research Network-sponsored Clinical and Epidemiologic Validation Center since its nascent enrollment in 2000 (IRB #HSC20000030H). A separate IRB was approved for the phase 1 trial (IRB #HSC20190940H). Subjects had no prior diagnosis of prostate cancer at the time of enrollment and varied prostate cancer risk profiles. We used the local UT Health San Antonio Data Safety and Monitoring Board (DSMB).
(§1) Study Outcomes: Safety was compared to evaluate the number, frequency, duration, and relation of toxicity events to CURC and UA, as defined by the Common Terminology Criteria for Adverse Events (CTCAE) v 4.03. […] We also investigated the impact on the microbiome in a paired analysis for change and overall theme of imputed bacterial function.
Common Terminology Criteria for Adverse Events (CTCAE) v 4.03. […] A creatinine rise would indicate kidney dysfunction.

[2] = Phase 1 clinical trial, safety laboratory values (week 2 minus baseline); format: in vivo, human
Source text: Laboratory Safety values. We perform laboratory analysis at baseline and at the end of the two-week study. We then subtracted the values (week 2-baseline) to obtain the differences for each participant.

[3] = human, in vivo; remark: listed apart in the source
Experimental: as §1
Measurement of Compounds: The compounds and their metabolites were measured using an UHPLC-MS/MS system performed on a Hybrid quadrupole-Orbitrap mass spectrometer (Q Exactive, Thermo Scientific, Waltham, MA, USA) hyphenated with a Thermo Scientific Vanquish Flex ultrahigh-pressure liquid chromatography (UHPLC) system via electrospray ionization source. For the parallel reaction monitoring (PRM) scan, the resolution, auto gain control (AGC) target, and maximum injection time (IT) were set at 17500, 2e5, and 100 ms. The All-Ion Fragmentation (AIF) scan consisted of a scan range of m/z 100-750 with NCE 10. The resolution, AGC target, and maximum IT for the AIF scan were set at 70000, 3e6, and 200 ms, respectively.
Statistical Analysis: Demographics between groups was compared using the Fischer Exact test for categorical variables and the Student's t-test for continuous variables. Safety laboratory values were analyzed using a paired t-test for differences, with significance set at p<0.05. ANOVA was used to compare plasma levels of UA, CURC, and CURC metabolites. Least significant difference (LSD) was used as the post hoc analysis test to compare values between groups.

prostate tumor = settings: 7-year period, men taking the drug daily; cited from earlier work
prostate cancer = settings: mouse, in vivo; cited from earlier work
[4] = week 2 minus baseline, median (IQR), n = 6

SMILES	Difference in ALT [2, 4]	Difference in AST [2, 4]	Difference in Albumin [2, 4]	Difference in Alkaline Phosphatase [2, 4]	Difference in Bicarbonate [2, 4]	Difference in Bilirubin [2, 4]	Difference in Calcium [2, 4]	Difference in Chloride [2, 4]	Difference in Creatinine [2, 4]	Difference in Glomerular Filtration Rate (GFR) [2, 4]	Difference in Hematocrit [2, 4]	Difference in Hemoglobin [2, 4]	Difference in Platelets [2, 4]	Difference in Sodium [2, 4]	Plasma levels in words (FIG. 2) [3]	other results
COc1cc(/C=C/C(=O)CC(=O)/C=C/c2ccc(O)c(OC)c2)ccc1O [Curcumin, curcumin]	−1.0 (−3.25 to 0.0)	2.0 (−2.0 to 3.3)	0.05 (−0.05 to 0.2)	−2.0 (−5.5 to 9.3)	−1.5 (−4.3 to 0.0)	−0.1 (−0.3 to 0.0)	0.2 (−0.15 to 0.32)	−0.5 (−1.3 to 0.8)	0.07 (−0 07 to 0.16)	−5.5 (−12.0 to 4.5)	0.25 (−1.45 to 2.35)	0.20 (−0.30 to 0.55)	7.0 (−5 to 31.5)	0.0 (−1.5 to 1.0)	Minimal amounts of the parent curcumin compound and large amounts of curcumin glucuronide	Relationship To Study Treatment [1]: Unlikely; GFR after 2 weeks, individual participant ([2]; curcumin arm participant baseline 45, CurcUA participant baseline 76): 46; Difference in White blood cell (WBC) [2, 4]: 0.15 (−0.43 to 0.68)
CC(C)(C)NC(=O)[C@H]1CC[C@H]2[C@@H]3CC[C@H]4NC(=O)C=C[C@]4(C)[C@H]3CC[C@]12C [Finasteride]	–	–	–	–	–	–	–	–	–	–	–	–	–	–	–	Reduction in prostate tumor prevalence (prostate tumor): 24.8%
C[C@H]1[C@H](C)CC[C@]2(C(=O)O)CC[C@]3(C)C(=CC[C@@H]4[C@@]5(C)CC[C@H](O)C(C)(C)[C@@H]5CC[C@]43C)[C@H]12 [Ursolic Acid, ursolic acid]	1.5 (1.0 to 12.8)	2.0 (−1.3 to 3.3)	0.0 (−0.1 to 0.2)	2.5 (−2.5 to 5.0)	1.0 (−1.5 to 3.0)	0.0 (−0.08 to 0.15)	0.03 (−0.05 to 0.48)	−1.0 (−2.75 to 1.75)	−0.08 (−0.33 to 0.12)	−3.5 (−10.3 to 3.5)	1.55 (−0.85 to 2.85)	0.20 (−0.33 to 0.58)	9.5 (2.5 to 27)	0.5 (−1.5 to 2.25)	modest absorption of ursolic acid	Median plasma values of CURC and its metabolites ([3]; male, 14 day): 0.0 ng/mL; Effect on prostate cancer in TRAMP mice (prostate cancer): inhibited initiation, progression, and metastasis of prostate cancer
